Data from patent US8785472B2, “Use of dextromethorphan in treating addictive behavior or bipolar disorder” (National Cheng Kung University, priority 2010, dated 2014).
Entries after “also recorded” stand apart in the source; their conditions may differ.

Experiments:
[1] = tested on: rat primary mixed mesencephalic neuron-glia cultures; settings: cited from earlier work
[2] = tested on: plasma TNF-α, IL-1β, IL-8, CRP, BDNF; assay: Plasma cytokine level (ELISA) in the DM add-on valproate trial; assay type: in vivo, human
Protocol: Blood routine, SGOT, SGPT, BUN and creatinine were measured only while the samples were taken at screen and at the end of the study. Plasma cytokine was quantified using the enzyme-linked immunosorbent assays (ELISAs). The Quantikine Human cytokine kit (R&D system), and Molecular Devices (SpectraMax-M2) ELISA reader were used to analyze the plasma cytokine level. The immunological parameters, BDNF, TNF-α, and interleukins were measured in the blood samples. The low limit sensitivity was 0.5 pg/ml, 0.125 pg/ml and 62.5 pg/ml for TNF-α, IL-1β and BDNF respectively. Finally, we used HPLC with UV detector to measure the plasma DM level.
(§1) All of the above, vital sign, and immunological markers were measured at baseline, 1, 2, 4, 8 and 12 weeks. For the 30 subjects of health control were also recruited for comparing the immune markers. The degree of benefit on symptoms after the week 4, 8 and end of treatment due to add-on DM treatment to VPA in comparison with placebo using a main measure of total psychopathology. The safety and tolerability and measure and assess the changes of immunology, and clinical features between the group with add-on DM treatment with placebo from Baseline to the end of study were compared.

[3] = tested on: plasma TNF-alpha, CRP, IL-1beta, IL-6, IL-8, BDNF; assay: Plasma immunological markers (ELISA) in the DM add-on methadone trial; assay type: in vivo, human; settings: for plasma TNF-alpha concentration: FIG. 3
Protocol: • Human Cytokine Array I (Ray Biotech Inc., Norcross, Ga.) consisted of 23 different cytokine and chemokine antibodies spotted in duplicate onto a membrane (Dvorakova et al. 2004). The membranes were blocked with 10% bovine serum albumin in Tris-buffered saline according to the instructions of the manufacturer. One and a half milliliters of conditioned medium was added to each membrane in separate wells of a six-well plate. The membranes were shaken at 110 rpm at room temperature for an hour and a half. All washes were done in new six-well plates, according to the instructions of the manufacturer. Two milliliters of a 1:500 dilution of biotinconjugated antibodies was added to each membrane, and the mixture was incubated on a shaker for an hour and a half at room temperature. Following the wash, the membranes were incubated with a 1:40,000 dilution of strepavidin-conjugated peroxidase for 1 hour at room temperature, according to the instructions of the manufacturer. Following a thorough wash, the membranes were exposed to a peroxidase substrate (ChemGlow West; Alphalnnotech Corp., San Leandro, Calif.) for 5 min in the dark before imaging. Two or six individual membranes were placed side-by-side in a plastic protective folder and sealed. Imaging was done with a UVP AutoChemi imaging system within 30 min of exposure to the substrate. Exposure times ranged from 1 to 10 min. Chemiluminescence was quantified with LabWorks imaging and analysis software. Horseradish peroxidase (HRP)-conjugated antibody served as a positive substrate control at six spots and was also used to identify membrane orientation. For each spot the net density gray level was determined by subtracting the background gray levels from the total raw density gray levels. The relative fold difference in cytokine amount was determined in reference to the amount present on the control culture membrane based on the following: average treated culture cytokine spot gray levels/average control culture cytokine spot gray levels. 2. ELISA • Cytokine was quantified by using the Flexia antibody pair system (Bio-Source Intl., Camarillo, Calif.). Basically, the enzyme-linked immunosorbent assays (ELISAs) were optimized by using 96-well plates (MaxiSorp; Nalge Nunc International Corp., Naperville, Ill.) coated with 100 μl of strepavidin (Sigma, St. Louis, Mo.) at 5 μg/ml in water overnight at 37° C. or until all water was evaporated. All plates were stored desiccated at 4° C. until use. Biotinylated F(ab)2 coating antibody (5 μg/ml) was added to each well, and the plate was incubated at 37° C. for 2 hours. All wells were blocked and washed according to the instructions of the manufacturer. Standards or samples (100 μl) were added to the wells, and the plates were incubated at 37° C. for 1 hour. HRP-conjugated antibody (10 μg/ml) was added for an additional hour at 37° C. The plates were then washed thoroughly according to the instructions of the manufacturer. One hundred microliters of tetramethlybenzidine substrate (Roche, Indianapolis, Ind.) was added to each well, and the plates were held for 30 min in the dark. The reaction was stopped by the addition of 100 μl of 2 NH2SO4 to each well. The absorbance was read on an automated plate reader (Tecan U.S. Inc.) at 450 nm (reference wavelength, 650 nm). Values (in picograms per milliliter) were calculated from a standard curve. Samples were diluted up to 1:20, depending on the concentration.
The immunological parameters, C-reactive protein, TNF-α and interleukins was measured in the blood samples taken at Screen, week 1, week 4, week 8 and at the end of the study.

[4] = tested on: methadone-maintained male inpatients; settings: DM at high doses (120, 240, 480 mg/day in increasing order); cited from earlier work
[5] = tested on: subjects with bipolar I or II disorder; assay: Double-blind DM add-on to valproate, 12 weeks: YMRS, HDRS, CGI; assay type: in vivo, human; settings: for YMRS score: DM 60 mg/day add-on to VPA
Source text: Totally 292 male and female subjects with bipolar I or II disorder, from the Department of Psychiatry at National Cheng Kung University Hospital and National Defense Medical Center were recruited. […] The Institutional Review Board for the Protection of Human Subjects approved the study protocol by both medical centers.
The add-on double-blind study treatment with DM/place was commenced at randomization for 12 weeks while patients continue open-label VPA. Subjects were randomized to either with 60 mg per day of DM or placebo at Baseline and proceeded to double-blind Add-On Treatment. The treatment response and side effect were measured to clarify the curative effect of DM add-on therapy to VPA in the treatment of bipolar disorders. […] Concomitant benzodiazepine medication (preferably up to 8 mg lorazepam) was used for daytime sedation, agitation or insomnia during the study. Risperidone 1-6 mg/daily and fluoxetine 20 mg/daily were permitted during manic or depressive stage, and anticholinergic drug was also used for the extrapyramidal syndrome (EPS).
The Chinese version of the modified SADS-L, a semi-structured interview aimed at formulating the main diagnoses based upon DSM-IV criteria with good inter-rater reliability. This modified version of SADS-L with its diagnoses was used as the gold standard. The severity of current symptoms was assessed by using the YMRS and HDRS. The diagnoses of a mood disorder were made according to DSM-IV criteria, except for bipolar II disorder, where the duration criterion for hypomania of 4 days was left out but 2-day cutoff for hypomania was used instead, because the 4 days minimum duration might not be based on data and the newly adopted cutoff had been supported by several previous reports. The side effect was measured using Clinical Global Impression (CGI) at each visit point.
as §1
For each scale, data were analyzed using last observation carried forward (LOCF) method, in which the last observation was entered for missing visits. To assess the efficacy in various clinical domains and take into account patient effects, mixed-effects models (Lange & Ryan 1989) were used (with intercept as the random effects) for all normally distributed outcomes, with main effects for treatment (DM or placebo), time (0, 1, 2, 4, 8, 12 weeks), and the treatment×time interaction. The analysis of the response rate was intent to treat. All hypothesis tests were 2-sided and were conducted at α=0.05. The post hoc of independent t test was then used to examine which time point the effect of add-on treatment started. P<0.05 was considered statistically significant for all two-sided tests. Statistical analyses were carried out using SPSS for windows (version 15.0).

[6] = tested on: subjects with opioid dependence; assay: Double-blind DM add-on to methadone maintenance therapy, 12 weeks: methadone dose and urine opioid
LPS and MPTP PD models = settings: cited from earlier work
[7] = BP subjects, after 12 weeks depakine add-on dextromethorphan vs pretest, FIG. 11
[8] = normal controls vs BP subjects, before and after treatment (data not shown)

In the case of `COc1ccc2c(c1)[C@]13CCCC[C@@H]1[C@H](C2)N(C)CC3` [DM, Dextromethorphan], the neuroprotection with post-treatment ([1]; DM added up to 60 minutes after the addition of LPS) is listed as “Significant neuroprotection”, the “number of dopamine neurons and dendrite morphology” value ([1]; pretreated with DM (10 μM) before LPS stimulation) is listed as “significantly more numerous and the dendrites less affected” and the “concentration protecting dopamine neurons against LPS-induced reduction of dopamine uptake” value ([1]; rat primary mixed mesencephalic neuron-glia cultures) is listed as 1 to 10 µM. The “plasma IL-1β” value ([2]; BP patients, after the add-on DM treatment) was “decrease”, the “plasma IL-8 level” value [2, 7] was “significant decreasing” and the “plasma TNF-α level” value [2, 7] was “significant decreasing”. For the same molecule, the “plasma BDNF” value [2, 8] was “no difference”, the “plasma CRP” value [2, 8] was “no difference” and the “plasma IL-6 concentration” value ([3]; between groups throughout 12-week treatment, FIG. 6) was “no significant differences”. The “plasma IL-8 concentration” value ([3]; between groups throughout 12-week treatment, FIG. 7) was “no significant differences”, the “plasma BDNF concentration” value ([3]; between groups throughout 12-week treatment, FIG. 8) was “no significant differences” and the “plasma TNF-alpha concentration” value ([3]; both high and low plasma DM groups vs placebo) was “Significantly lower plasma TNF-alpha concentration”. For the same molecule, the “plasma IL-1beta concentration” value ([3]; both high and low plasma DM level groups vs placebo, FIG. 5) was “lower plasma IL-1beta concentration”, the “plasma TNF-alpha concentration” value ([3]; low plasma DM group compared with high plasma DM group) was “tendency of more decrease of plasma TNF-alpha concentration” and the “plasma CRP concentration” value ([3]; only in low plasma DM group, FIG. 4) was “lower plasma CRP concentration”. For the same molecule, the “effects on heart rate, blood pressure, temperature and plasma bromide” value [4] was “mild elevations”, the “HDRS score, DM vs placebo” value ([5]; BP I) was “no differences” and the “YMRS score, DM vs placebo” value ([5]; BP I) was “no differences”. For the same molecule, the YMRS score ([5]; BP I, Baseline) was 8.08 ± 5.35, the YMRS score ([5]; BP I, Week 1) was 8.08 ± 5.35 and the YMRS score ([5]; BP I, Week 2) was 7.31 ± 5.00. The YMRS score ([5]; BP I, Week 4) was 5.86 ± 3.01, the YMRS score ([5]; BP I, Week 8) was 6.16 ± 3.61 and the YMRS score ([5]; BP I, Week 12) was 5.80 ± 4.04. For the same molecule, the “CGI-therapeutic effect score, DM vs placebo” value ([5]; BP I, p=0.07, FIG. 10) was “borderline significance; also recorded: Borderline improvement”, the “effectiveness in hypomania stage” value ([5]; BP II patients, dextromethorphan add-on depakine, after 8 weeks of treatment) was “more effective” and the YMRS score ([5]; BP II, Baseline) was 5.77 ± 3.25. The YMRS score ([5]; BP II, Week 1) was 5.60 ± 2.99, the YMRS score ([5]; BP II, Week 2) was 5.88 ± 3.13 and the YMRS score ([5]; BP II, Week 4) was 5.60 ± 2.90. The YMRS score ([5]; BP II, Week 8 (p = 0.01 vs placebo)) was 4.40 ± 2.26, the YMRS score ([5]; BP II, Week 12 (p = 0.008 vs placebo)) was 4.26 ± 1.97 and the “YMRS score, DM vs placebo over time” value ([5]; BP II, F=5.68, p=0.02, FIG. 9) was “significant difference of YMRS score”. The percentage morphine-positive urine ([6]; both high (>30 ng/ml) and low (<=30 ng/ml) plasma DM level groups vs placebo, FIG. 2) was “lower percentage morphine-positive urine”, the methadone dosage change ([6]; low plasma DM level group (<=30 ng/ml) vs high plasma DM group and placebo, 12 weeks add-on to methadone, FIG. 1) was “highest tendency of decrease of methadone use” and the “protective effect in animal PD models” value (LPS and MPTP PD models) was “potent protective effect”.
